Results on 21 molecules are retold here after US9340555B2, “Compounds as tyrosine kinase modulators” (Allergan, Inc., priority 2009, dated 2016).

Assay [1] addresses human VEGF receptor (VEGFR-2) (Homo sapiens (Human), UniProt P35968). As to the kind of experiment: VEGFR2 Kinase Assay (Enzymic VEGFR2). The conditions noted are these: His-VEGFR-2 cytoplasmic domain, 3.6 µM ATP. The assay is classed as biochemical. How it is done:
VEGFR2 Kinase Assay The cytoplasmic domain of the human VEGF receptor (VEGFR-2) was expressed as a Histidine-tagged fusion protein following infection of insect cells using an His engineered baculovirus. […] Kinase assays were performed in 96 well microtiter plates that were coated overnight with 30 µg of poly-Glu-[…]:1) in 10 mM Phosphate Buffered Saline (PBS), pH 7.2-7.4. The plates were incubated with 1% BSA and then washed four times with PBS prior to starting the reaction. […] Reactions were initiated by the addition 0.5 ng of purified protein. Following a ten minute incubation at 25° C., the reactions were washed four times with PBS containing 0.05% Tween-20. 100 µl of a monoclonal anti-phosphotyrosine antibody-peroxidase conjugate was diluted 1:10000 in PBS-Tween-20 and added to the wells for 30 minutes. Following four washes with PBS-Tween-20, 100 µl of 0-phenylenediamine Dihydrochloride in Phosphate-citrate buffer, containing urea hydrogen peroxide, was added to the wells for 7 minutes as a colorimetric substrate for the peroxidase. […] IC50 values for compound inhibition were calculated directly from graphs of optical density (arbitrary units) versus compound concentration following subtraction of blank values.

For assay [2], the target named is VEGFR1 (Homo sapiens (Human), UniProt P17948). As to the kind of experiment: Enzymic VEGFR1. The assay is classed as biochemical.
Sequence of VEGFR1 (P17948 27-1338, species assumed): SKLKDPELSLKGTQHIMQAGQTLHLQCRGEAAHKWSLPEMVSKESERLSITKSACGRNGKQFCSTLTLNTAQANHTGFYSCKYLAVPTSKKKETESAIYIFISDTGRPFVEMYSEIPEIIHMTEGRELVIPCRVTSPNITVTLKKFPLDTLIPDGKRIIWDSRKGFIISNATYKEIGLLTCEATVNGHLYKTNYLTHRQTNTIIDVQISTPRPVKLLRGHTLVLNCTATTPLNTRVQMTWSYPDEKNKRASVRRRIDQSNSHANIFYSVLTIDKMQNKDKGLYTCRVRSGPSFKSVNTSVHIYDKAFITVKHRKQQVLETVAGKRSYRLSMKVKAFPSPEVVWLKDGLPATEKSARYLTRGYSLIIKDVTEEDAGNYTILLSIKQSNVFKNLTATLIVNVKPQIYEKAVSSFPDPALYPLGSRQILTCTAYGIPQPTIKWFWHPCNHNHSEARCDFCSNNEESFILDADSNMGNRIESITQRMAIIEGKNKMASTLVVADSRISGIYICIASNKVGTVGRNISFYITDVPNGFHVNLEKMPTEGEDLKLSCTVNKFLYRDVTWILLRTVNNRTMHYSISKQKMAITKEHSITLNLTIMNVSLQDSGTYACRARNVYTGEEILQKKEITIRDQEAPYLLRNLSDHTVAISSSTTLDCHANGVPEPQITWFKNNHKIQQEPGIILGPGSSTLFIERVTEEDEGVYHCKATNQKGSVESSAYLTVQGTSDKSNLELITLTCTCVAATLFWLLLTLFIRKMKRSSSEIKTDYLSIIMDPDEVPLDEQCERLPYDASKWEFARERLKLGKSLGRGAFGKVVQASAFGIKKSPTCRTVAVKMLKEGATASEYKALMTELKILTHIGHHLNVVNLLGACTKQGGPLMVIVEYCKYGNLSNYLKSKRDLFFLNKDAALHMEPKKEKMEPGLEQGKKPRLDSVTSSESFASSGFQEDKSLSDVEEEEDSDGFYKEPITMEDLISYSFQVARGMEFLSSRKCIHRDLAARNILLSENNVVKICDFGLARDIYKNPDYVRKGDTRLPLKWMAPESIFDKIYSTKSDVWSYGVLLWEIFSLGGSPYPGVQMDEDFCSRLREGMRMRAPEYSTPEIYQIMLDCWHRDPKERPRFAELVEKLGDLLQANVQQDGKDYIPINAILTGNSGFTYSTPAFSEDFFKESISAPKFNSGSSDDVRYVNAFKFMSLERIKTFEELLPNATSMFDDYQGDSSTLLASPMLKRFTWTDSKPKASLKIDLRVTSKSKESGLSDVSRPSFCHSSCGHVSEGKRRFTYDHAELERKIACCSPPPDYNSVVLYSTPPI
Assay [3] has as its target PDGFRβ (Homo sapiens (Human), UniProt P09619). The experiment in a line: Enzymic PDGFRβ. The assay is classed as biochemical.
In assay [4] the target is VEGFR2 (Homo sapiens (Human), UniProt P35968). As to the kind of experiment: VEGF Stimulated Ca++ Signal In Vitro (Cellular VEGFR2, FLIPR). The assay is classed as cell-based. The conditions noted are these: HUVEC, VEGF stimulation (5 ng/mL), intracellular calcium. On the technique in general: Calcium flux is commonly read through the fluorescence of an indicator in the cells.
Sequence of VEGFR2 (P35968 20-1356): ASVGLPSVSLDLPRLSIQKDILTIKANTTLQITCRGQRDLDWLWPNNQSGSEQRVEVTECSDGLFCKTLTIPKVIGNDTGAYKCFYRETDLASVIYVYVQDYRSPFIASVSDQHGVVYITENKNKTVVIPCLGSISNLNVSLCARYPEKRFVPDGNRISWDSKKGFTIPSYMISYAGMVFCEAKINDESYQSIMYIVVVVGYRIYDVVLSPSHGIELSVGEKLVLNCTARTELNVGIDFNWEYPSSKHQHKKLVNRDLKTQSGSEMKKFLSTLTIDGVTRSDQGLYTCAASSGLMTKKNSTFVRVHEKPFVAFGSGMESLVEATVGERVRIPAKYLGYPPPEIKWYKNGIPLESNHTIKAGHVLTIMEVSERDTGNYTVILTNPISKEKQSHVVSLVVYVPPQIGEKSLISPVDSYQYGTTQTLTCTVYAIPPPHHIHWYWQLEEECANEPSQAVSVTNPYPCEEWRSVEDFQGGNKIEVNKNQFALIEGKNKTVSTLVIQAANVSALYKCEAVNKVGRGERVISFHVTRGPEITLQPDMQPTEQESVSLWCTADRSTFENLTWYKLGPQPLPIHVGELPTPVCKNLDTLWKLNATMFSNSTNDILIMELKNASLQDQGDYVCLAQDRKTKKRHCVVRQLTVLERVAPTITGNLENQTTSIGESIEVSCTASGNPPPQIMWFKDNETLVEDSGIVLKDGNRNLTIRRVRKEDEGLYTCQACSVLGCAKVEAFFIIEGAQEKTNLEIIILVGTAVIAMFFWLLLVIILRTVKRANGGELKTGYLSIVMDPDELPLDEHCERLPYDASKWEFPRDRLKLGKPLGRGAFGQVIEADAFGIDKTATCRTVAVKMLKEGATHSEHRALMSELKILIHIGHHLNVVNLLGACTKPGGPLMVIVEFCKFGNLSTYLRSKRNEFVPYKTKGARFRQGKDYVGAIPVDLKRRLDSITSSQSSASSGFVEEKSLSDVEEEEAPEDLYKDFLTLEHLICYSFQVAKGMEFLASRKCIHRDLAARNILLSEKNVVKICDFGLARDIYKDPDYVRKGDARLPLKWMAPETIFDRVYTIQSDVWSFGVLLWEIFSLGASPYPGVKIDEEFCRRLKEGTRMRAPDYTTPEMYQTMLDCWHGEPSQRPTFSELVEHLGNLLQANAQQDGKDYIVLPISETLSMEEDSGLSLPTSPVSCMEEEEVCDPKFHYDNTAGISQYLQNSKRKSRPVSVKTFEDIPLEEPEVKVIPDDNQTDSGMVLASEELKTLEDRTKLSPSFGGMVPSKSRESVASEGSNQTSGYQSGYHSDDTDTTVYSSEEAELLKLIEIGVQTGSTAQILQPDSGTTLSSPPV

The structures appear in SMILES notation.

Sequence of human VEGF receptor (VEGFR-2) (P35968 786-1356): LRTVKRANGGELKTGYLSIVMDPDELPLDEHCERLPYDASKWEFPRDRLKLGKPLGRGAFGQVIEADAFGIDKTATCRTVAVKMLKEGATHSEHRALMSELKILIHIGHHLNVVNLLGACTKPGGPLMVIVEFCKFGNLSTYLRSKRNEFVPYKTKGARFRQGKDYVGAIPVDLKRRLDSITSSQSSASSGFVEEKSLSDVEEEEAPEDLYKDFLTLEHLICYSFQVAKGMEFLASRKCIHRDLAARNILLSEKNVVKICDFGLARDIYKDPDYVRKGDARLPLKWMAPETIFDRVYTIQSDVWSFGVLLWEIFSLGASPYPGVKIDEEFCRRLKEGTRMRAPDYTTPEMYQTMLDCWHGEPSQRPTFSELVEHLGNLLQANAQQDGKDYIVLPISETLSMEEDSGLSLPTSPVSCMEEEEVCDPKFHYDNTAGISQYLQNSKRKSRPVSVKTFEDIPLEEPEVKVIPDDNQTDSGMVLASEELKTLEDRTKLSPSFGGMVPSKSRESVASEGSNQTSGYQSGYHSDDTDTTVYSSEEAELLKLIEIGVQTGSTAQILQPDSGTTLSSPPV
Sequence of PDGFRβ (P09619 33-1106, species assumed): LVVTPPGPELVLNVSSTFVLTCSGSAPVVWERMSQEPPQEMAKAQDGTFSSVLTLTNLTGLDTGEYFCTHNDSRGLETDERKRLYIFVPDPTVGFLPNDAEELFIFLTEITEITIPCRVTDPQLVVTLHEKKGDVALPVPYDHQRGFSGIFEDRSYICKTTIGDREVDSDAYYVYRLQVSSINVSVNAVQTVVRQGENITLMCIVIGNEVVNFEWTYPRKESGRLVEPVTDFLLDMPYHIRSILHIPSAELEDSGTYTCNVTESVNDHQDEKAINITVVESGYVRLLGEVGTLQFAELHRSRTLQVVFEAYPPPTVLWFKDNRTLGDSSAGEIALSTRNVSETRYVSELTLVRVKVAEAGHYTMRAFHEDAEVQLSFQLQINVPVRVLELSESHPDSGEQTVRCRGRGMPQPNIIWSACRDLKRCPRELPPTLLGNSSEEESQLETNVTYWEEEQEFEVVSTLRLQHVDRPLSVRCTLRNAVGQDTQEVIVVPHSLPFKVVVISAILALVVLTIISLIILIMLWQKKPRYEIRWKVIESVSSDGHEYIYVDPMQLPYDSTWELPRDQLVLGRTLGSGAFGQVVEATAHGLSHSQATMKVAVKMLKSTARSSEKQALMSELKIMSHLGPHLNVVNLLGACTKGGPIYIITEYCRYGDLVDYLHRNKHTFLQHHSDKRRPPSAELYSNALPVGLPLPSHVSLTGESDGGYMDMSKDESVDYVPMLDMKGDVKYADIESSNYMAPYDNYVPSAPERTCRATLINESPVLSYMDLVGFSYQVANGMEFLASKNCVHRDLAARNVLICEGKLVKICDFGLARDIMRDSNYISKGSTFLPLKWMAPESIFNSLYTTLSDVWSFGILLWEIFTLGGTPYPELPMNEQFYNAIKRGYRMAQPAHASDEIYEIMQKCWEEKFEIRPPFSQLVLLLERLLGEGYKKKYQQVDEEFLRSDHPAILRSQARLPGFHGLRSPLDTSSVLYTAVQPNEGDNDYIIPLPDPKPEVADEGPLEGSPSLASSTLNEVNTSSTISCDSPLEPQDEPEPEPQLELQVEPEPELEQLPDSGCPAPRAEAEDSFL

As usually defined, the IC50 is the concentration that gives 50% inhibition. As to `Cc1ccc(F)c(NC(=O)Nc2ccc(Oc3ccnc4cc(C(=O)NCCCN5CCOC(CO)C5)sc34)cc2)c1` (centres unmarked) [Example 16, 7-[4-({[(2-fluoro-5-methylphenyl)amino]carbonyl}amino)phenoxy]-N-{3-[2-(hydroxymethyl)morpholin-4-yl]propyl}thieno[3,2-b]pyridine-2-carboxamide], the figures for the IC50 in assay [1], in assay [2] and in assay [3] were 7 nM, 10 nM and 15 nM, respectively.

As to `COC(=O)CNCCCNC(=O)c1cc2nccc(Oc3ccc(NC(=O)Nc4cc(C)ccc4F)c(F)c3)c2s1` [Example 25, methyl ({3-[({7-[3-fluoro-4-({[(2-fluoro-5-methylphenyl)amino]carbonyl}amino)phenoxy]thieno[3,2-b]pyridin-2-yl}carbonyl)amino]propyl}amino)acetate], the results for the IC50 in assay [1], in assay [2] and in assay [3] were 5 nM, 8 nM and 11 nM, respectively.

`COC(=O)CN(CCCNC(=O)c1cc2nccc(Oc3ccc(NC(=O)Nc4cc(C)ccc4F)c(F)c3)c2s1)CC(=O)OC` [Example 26, dimethyl 2,2′-({3-[({7-[3-fluoro-4-({[(2-fluoro-5-methylphenyl)amino]carbonyl}amino)phenoxy]thieno[3,2-b]pyridin-2-yl}carbonyl)amino]propyl}imino)diacetate]: the IC50 in assay [1] is 5 nM; in assay [2], 10 nM; in assay [3], 12 nM.

Turning to `COC(=O)CN(CCNC(=O)c1cc2nccc(Oc3ccc(NC(=O)Nc4cc(C)ccc4F)c(F)c3)c2s1)CC(=O)OC` [Example 27, dimethyl 2,2′-({2-[({7-[3-fluoro-4-({[(2-fluoro-5-methylphenyl)amino]carbonyl}amino)phenoxy]thieno[3,2-b]pyridin-2-yl}carbonyl)amino]ethyl}imino)diacetate], the IC50 in assay [1] is 16 nM; in assay [2], 11 nM; in assay [3], 17 nM.

For `COC(=O)C1CCN(C(=O)c2cc3nccc(Oc4ccc(NC(=O)Nc5cc(C)ccc5F)c(F)c4)c3s2)C1` (centres unmarked) [Example 28, methyl 1-({7-[3-fluoro-4-({[(2-fluoro-5-methylphenyl)amino]carbonyl}amino)phenoxy]thieno[3,2-b]pyridin-2-yl}carbonyl)pyrrolidine-3-carboxylate], the IC50 in assay [1] came out at 5 nM; in assay [2], 8 nM; in assay [3] it was 17 nM.

As to `CCOC(=O)CN1CCN(C(=O)CN2CCN(C(=O)c3cc4nccc(Oc5ccc(NC(=O)Nc6cc(C)ccc6F)c(F)c5)c4s3)CC2)CC1` [Example 29, ethyl (4-{[4-({7-[3-fluoro-4-({[(2-fluoro-5-methylphenyl)amino]carbonyl}amino)phenoxy]thieno[3,2-b]pyridin-2-yl}carbonyl)piperazin-1-yl]acetyl}piperazin-1-yl)acetate], the IC50 in assay [1] is 5 nM; in assay [2] it was 10 nM; in assay [3], 13 nM.

Turning to `CCOC(=O)CN1CCN(C(=O)c2cc3nccc(Oc4ccc(NC(=O)Nc5cc(C)ccc5F)c(F)c4)c3s2)CC1` [Example 30, ethyl [4-({7-[3-fluoro-4-({[(2-fluoro-5-methylphenyl)amino]carbonyl}amino)phenoxy]thieno[3,2-b]pyridin-2-yl}carbonyl)piperazin-1-yl]acetate], the results for the IC50 in assay [1], in assay [2] and in assay [3] were 7 nM, 112 nM and 17 nM, respectively.

As to `COC(=O)CNCCNC(=O)c1cc2nccc(Oc3ccc(NC(=O)Nc4cc(C)ccc4F)c(F)c3)c2s1` [Example 31, methyl ({2-[({7-[3-fluoro-4-({[(2-fluoro-5-methylphenyl)amino]carbonyl}amino)phenoxy]thieno[3,2-b]pyridin-2-yl}carbonyl)amino]ethyl}amino)acetate], the results for the IC50 in assay [1], in assay [2] and in assay [3] were 9 nM, 9 nM and 13 nM, respectively.

Regarding `Cc1ccc(F)c(NC(=O)Nc2ccc(Oc3ccnc4cc(C(=O)NCCCN5CCCC(CO)C5)sc34)cc2F)c1` (centres unmarked) [Example 36, 7-[3-fluoro-4-({[(2-fluoro-5-methylphenyl)amino]carbonyl}amino)phenoxy]-N-{3-[3-(hydroxymethyl)piperidin-1-yl]propyl}thieno[3,2-b]pyridine-2-carboxamide], the IC50 was determined as 7 nM in assay [1] and 8 nM in assay [2].

`COC(=O)CC[C@H](NC(=O)c1cc2nccc(Oc3ccc(NC(=O)Nc4cc(C)ccc4F)c(F)c3)c2s1)C(=O)OC` [Example 54, dimethyl (2S)-2-[({7-[3-fluoro-4-({[(2-fluoro-5-methylphenyl)amino]carbonyl}amino)phenoxy]thieno[3,2-b]pyridin-2-yl}carbonyl)amino]pentanedioate]: the values for the IC50 in assay [4] and in assay [1] were 4 nM and 34 nM, respectively.

`CCOC(=O)CCCNC(=O)c1cc2nccc(Oc3ccc(NC(=O)Nc4cc(C)ccc4F)cc3)c2s1` [Example 56, ethyl 4-[({7-[4-({[(2-fluoro-5-methylphenyl)amino]carbonyl}amino)phenoxy]thieno[3,2-b]pyridin-2-yl}carbonyl)amino]butanoate]: the IC50 is 20 nM in assay [1] and 16 nM in assay [2].

Consider `Cc1ccc(F)c(NC(=O)Nc2ccc(Oc3ccnc4cc(C(=O)NCCCC(=O)O)sc34)cc2F)c1` [Example 64, 4-[({7-[3-fluoro-4-({[(2-fluoro-5-methylphenyl)amino]carbonyl}amino)phenoxy]thieno[3,2-b]pyridin-2-yl}carbonyl)amino]butanoic acid], for which the IC50 was 13 nM in assay [1] and 7 nM in assay [2].

In the case of `Cc1ccc(F)c(NC(=O)Nc2ccc(Oc3ccnc4cc(C(=O)NCCCN5CCCCC5)sc34)cc2)c1` [Example 66, 7-[4-({[(2-fluoro-5-methylphenyl)amino]carbonyl}amino)phenoxy]-N-(3-piperidin-1-ylpropyl)thieno[3,2-b]pyridine-2-carboxamide], the IC50 in assay [4] turned out to be 16 nM; in assay [1], 4 nM; in assay [3], 16 nM.

Turning to `Cc1ccc(F)c(NC(=O)Nc2ccc(Oc3ccnc4cc(C(=O)NCCCN5CCN(C)CC5)sc34)cc2)c1` [Example 67, 7-[4-({[(2-fluoro-5-methylphenyl)amino]carbonyl}amino)phenoxy]-N-[3-(4-methylpiperazin-1-yl)propyl]thieno[3,2-b]pyridine-2-carboxamide], the IC50 in assay [4] was 2 nM; in assay [1], 2 nM; in assay [3], 9 nM.

On to `Cc1ccc(F)c(NC(=O)Nc2ccc(Oc3ccnc4cc(C(=O)NCCCN5CCCC5)sc34)cc2)c1` [Example 68, 7-[4-({[(2-fluoro-5-methylphenyl)amino]carbonyl}amino)phenoxy]-N-(3-pyrrolidin-1-ylpropyl)thieno[3,2-b]pyridine-2-carboxamide], for which the IC50 in assay [4] came out at 20 nM; in assay [1], 6 nM; in assay [3] it was 16 nM.

Take `Cc1ccoc1C(=O)Nc1cccc(Oc2ccnc3cc(C(=O)O)sc23)c1` [Example 72, 7-{3-[(3-methyl-2-furoyl)amino]phenoxy}thieno[3,2-b]pyridine-2-carboxylic acid]: the IC50 in assay [4] was determined as 162 nM; in assay [1], 39 nM; in assay [3], 920 nM.

`Cc1ccoc1C(=O)Nc1cccc(Oc2ccnc3cc(C(=O)NO)sc23)c1` [Example 75, N-hydroxy-7-{3-[(3-methyl-2-furoyl)amino]phenoxy}thieno[3,2-b]pyridine-2-carboxamide]: the IC50 in assay [4] was found to be 16 nM; in assay [1], 11 nM; in assay [3], 277 nM.

As for `Cc1ccc(F)c(NC(=O)c2cccc(Oc3ccnc4cc(C(=O)O)sc34)c2)c1` [Example 84, 7-(3-{[(2-fluoro-5-methylphenyl)amino]carbonyl}phenoxy)thieno[3,2-b]pyridine-2-carboxylic acid], the IC50 in assay [4] was 87 nM; in assay [1] it was 20 nM; in assay [3], 223 nM.

Consider `CCNC(=O)c1cc2nccc(Oc3cccc(C(=O)Nc4cc(C)ccc4F)c3)c2s1` [Example 85, N-ethyl-7-(3-{[(2-fluoro-5-methylphenyl)amino]carbonyl}phenoxy)thieno[3,2-b]pyridine-2-carboxamide], for which the IC50 was found to be 16 nM in assay [4], 10 nM in assay [1] and 74 nM in assay [3].

In the case of `CCN(CC)C(=O)c1cc2nccc(Oc3cccc(C(=O)Nc4cc(C)ccc4F)c3)c2s1` [Example 86, N,N-diethyl-7-(3-{[(2-fluoro-5-methylphenyl)amino]carbonyl}phenoxy)thieno[3,2-b]pyridine-2-carboxamide], the IC50 was found to be 64 nM in assay [4], 7 nM in assay [1] and 206 nM in assay [3].

For `COC(=O)CNCCCNC(=O)c1cc2nccc(Oc3cccc(C(=O)Nc4cc(C)ccc4F)c3)c2s1` [Example 87, Methyl {[3-({[7-(3-{[(2-fluoro-5-methylphenyl)amino]carbonyl}phenoxy)thieno[3,2-b]pyridin-2-yl]carbonyl}amino)propyl]amino}acetate], the IC50 in assay [4] stood at 9 nM; in assay [1] it was 16 nM; in assay [3], 59 nM.
